The source of these data is patent publication US10300155B2, “Alpha-synuclein ligands” (Washington University, priority 2015, dated 2019).

“And” between values parts separate entries of the source, which are not always exact repeats. Equal values may be shown once. Read-outs that look alike come from different tables or passages of the source.

The target in this test is T1, α-synuclein fibrils (Homo sapiens, UniProt P37840).
T1 construct: made in house; host or cells: E. coli BL21(DE3)RIL
The test can be described thus: ThT competitive assay for α-synuclein fibrils (Table 1). It is filed as binding. Conditions: for EC50: α-synuclein fibrils. Here is the method:
Upon binding to amyloid fibrils, a peak at approximately 440 nm becomes dominant with the fluorescent emission maximum shifted to 480 nm. This is accompanied by a strong enhancement of the fluorescence.
α-Synuclein recombinant protein was produced in E. coli. […] Freshly transformed BL21 colonies were inoculated into 2 L baffled flasks containing 250 mL sterilized TB (1.2% bactotryptone, 2.4% yeast extract, 0.4% glycerol, 0.17 M KH2PO4, 0.72 M K2HPO4) with 50 μg/ml ampicillin, and incubated overnight at 37° C. with shaking.
To determine the concentration of fibrils, the reaction mixture (100 μL) was centrifuged at 18,000×g for 10 minutes to separate fibrils from monomer. The α-synuclein monomer and other soluble proteins in the supernatant were removed, and the fibril pellet was resuspended in 100 μL solution of Tris-HCl (20 mM) and NaCl (100 mM). This fibril suspension was used in a bicinchoninic acid (BCA) protein assay along with a bovine serum albumin (BSA) standard curve to determine the concentration of fibrils in the 72 hour fibril reaction mixture.
To prepare the fibrils for performing binding assays, the fibril reaction mixture prepared above was centrifuged at 18,000×g for 10 minutes.
Once the ThT-α-synuclein saturation binding curve and dissociation constant (Kd) were determined the competitive assay for determining the binding affinity of various test compounds was conducted. […] The mixture was incubated at room temperature for 60 minutes on the shaking plate. The fluorescent intensity for each cell was measured by the fluorescence reader at λex and λem. The Ki value for each compound was calculated by the corresponding inhibition curve.
The Ki values were derived from the EC50 values using the Cheng-Prusoff equation: Ki=EC50/(1+[radioligand]/Kd). See FIGS. 17.1-31.2 for the inhibition curves for each compound in the ThioT competitive binding assay.

Where [1] appears, read: average, read-out: Ki (nM) α-syn (avg).
Where [2] appears, read: individual determinations, read-out: Ki (nM) α-syn.
Setting [3] is: average, read-out: EC50 (nM) EC50 (avg).
Where [4] appears, read: individual determinations, read-out: EC50 (nM) EC50.

Take `COc1cc(/C=C/c2cnccn2)nc2ccccc12` [TZ-23-20]: the inhibition constant (Ki) (commonly the equilibrium dissociation constant of an inhibitor or competing ligand from its target) was determined as 3030 nM under setting [1] and 3030 nM under setting [2].
Take `COc1ccc(C2CCN(C(=O)c3ccc(/C=C/c4ccncc4)cc3)CC2)cc1` [TZ-20-39]: the Ki stood at 2460 nM under setting [1] and 2460 nM under setting [2].
As for `COc1cccc2ccc(/C=C/c3ccccc3)nc12` [TZ-19-148], the Ki was 614 nM under setting [1] and 614 nM under setting [2].
Turning to `COc1ccc(/C=C/c2ccc(CO)s2)cc1` [TZ-34-46], the inhibitory constant (Ki) was 108 nM under setting [1]; 105 nM and 110 nM under setting [2]. For the same compound, the EC50 (usually the concentration giving half of the maximal effect) reads like this: under setting [3], 281 nM; under setting [4], 275 nM and 287 nM.
Turning to `OCc1ccc2oc(-c3ccc(-c4ccc(F)nc4)c(C(F)(F)F)c3)nc2c1` [TZ-31-123], the inhibition constant Ki under setting [1] turned out to be 31400 nM and the inhibitory constant (Ki) under setting [2] came to 31400 nM. Also, the half-maximal effective concentration (EC50) under setting [3] stood at 82000 nM and the EC50 under setting [4] is 82000 nM.
Turning to `CN(C)c1ccc(/C=C/CN2c3ccccc3Oc3ccccc32)cc1` [TZ-19-138], the inhibition constant Ki by setting is: under setting [1], 3090 nM; under setting [2], 3090 nM.
As to `COc1cccc2nc(/C=C/c3ccccc3)ccc12` [TZ-19-152], the Ki by setting is: under setting [1], 532 nM; under setting [2], 532 nM.
As for `O=C(Nc1ccc(Br)cc1)c1ccc(/C=C/c2ccncc2)cc1` [TZ-23-52], the Ki under setting [1] was 10.4 nM.
As to `COc1ccc(/C=C/c2ccc(C(=O)NCCF)s2)cc1` [TZ-34-94], the Ki was 160 nM under setting [1]; 223 nM and 61 nM and 197 nM under setting [2]. Besides, the EC50 under setting [3] turned out to be 419 nM; the EC50 under setting [4] was 583 nM and 160 nM and 514 nM.
For `C(=C\c1cccs1)/c1ccncc1` [TZ-34-100], the inhibitory constant (Ki) reads like this: under setting [1], 604 nM; under setting [2], 604 nM. Besides, the EC50 by setting is: under setting [3], 1580 nM; under setting [4], 1580 nM.
`COc1ccc2nc(/C=C/c3ccnc(F)c3)ccc2c1` [TZ-36-26-2T]: the Ki under setting [1] worked out at 434 nM. Also, the EC50 under setting [3] turned out to be 1140 nM.
On to `COC(=O)c1ccc2oc(-c3ccc(-c4ccc(F)nc4)c(C(F)(F)F)c3)nc2c1` [TZ-31-125], for which the inhibitory constant (Ki) is, setting by setting: under setting [1], 1560 nM; under setting [2], 1560 nM. In addition, the EC50 reads like this: under setting [3], 4090 nM; under setting [4], 4090 nM.
Consider `Ic1ccc(/C=C/c2ccoc2)cc1` [TZ-34-86], for which the inhibition constant Ki under setting [1] is 134 nM; the Ki under setting [2] was 117 nM and 152 nM. Besides, the half-maximal effective concentration (EC50) runs as follows: under setting [3], 352 nM; under setting [4], 306 nM and 398 nM.
Regarding `COc1ccc2nc(/C=C/c3ccco3)ccc2c1` [TZ-36-52], the Ki under setting [1] came to 316 nM and the inhibition constant Ki under setting [2] was determined as 316 nM. The EC50 runs as follows: under setting [3], 827 nM; under setting [4], 827 nM.
Turning to `COc1ccc2nc(/C=C/c3cccnc3Cl)ccc2c1` [TZ-36-40], the Ki by setting is: under setting [1], 62 nM; under setting [2], 62 nM. In addition, the EC50 reads like this: under setting [3], 163 nM; under setting [4], 163 nM.
`COc1cccc(/C=C/c2cnccn2)c1` [TZ-22-49-1]: the Ki under setting [1] amounted to 117 nM and the Ki under setting [2] is 117 nM.
For the compound `Brc1ccc(/C=C/c2cnccn2)cc1` [TZ-22-47-1], the inhibition constant Ki by setting is: under setting [1], 76.7 nM; under setting [2], 76.7 nM.
In the case of `COc1ccc2c(c1)Oc1cc([N+](=O)[O-])ccc1N2C/C=C/c1ccc(N(C)C)cc1` [TZ-19-140], the inhibition constant (Ki) was found to be 467 nM under setting [1] and 467 nM under setting [2].
With `Ic1ccc(/C=C/c2cccs2)cc1` [TZ-34-63], the inhibition constant (Ki) reads like this: under setting [1], 80 nM; under setting [2], 80 nM. The concentration for a half-maximal effect (EC50) stood at 208 nM under setting [3] and 208 nM under setting [4].
As to `COc1ccc2nc(/C=C/c3ccsc3)ccc2c1` [TZ-36-30], the Ki was found to be 122 nM under setting [1] and 122 nM under setting [2]. The EC50 is, setting by setting: under setting [3], 320 nM; under setting [4], 320 nM.
As to `COC(=O)c1ccc(/C=C/c2ccncc2)cc1` [TZ-20-35], the Ki reads like this: under setting [1], 16.1 nM; under setting [2], 16.1 nM.
For the compound `COc1ccc(C2CCN(C(=O)COC(=O)c3ccc(C(C)(C)C)cc3)CC2)cc1` [TZ-20-23], the Ki is, setting by setting: under setting [1], 109 nM; under setting [2], 109 nM.
For `CN(C)c1ccc(/C=C/C=C/c2cccs2)cc1` [TZ-34-97], the Ki runs as follows: under setting [1], 69 nM; under setting [2], 69 nM. Besides, the 50% effective concentration (EC50) was 180 nM under setting [3] and 180 nM under setting [4].
